Results reported in patent US20040014814A1, “Compositions and methods for delaying preventing rejuvenating or reversing senescence in cells” (priority 2000, published 2004).

Legend:
MRC-5 cells [1] = test: Effect of carnosine derivatives on cell growth / toxicity in MRC-5 cell cultures; type: cell-based, human; design: key to Effect on cell growth (score): (0) Toxic to cell growth; (10) Confluent cell growth; details: for Effect on cell growth (score): MRC-5 cells, scale 0 toxic to 10 confluent; for Cell Growth: summary grade
Procedure: (§1) MRC -5 cells (fetal lung fibroblasts) were grown in Dulbecco's modification of Eagles' minimum essential medium (DMEM Gibco BRL Cat. No. 12800-017) containing 0.45% glucose, or MEM (Gibco BRL Cat. No. 612800-017) containing 0.1% glucose. Both media contained 10% fetal calf scrum (TRACE Biosciences Cat. No. 15-010-0500V) and Penicillin/Streptomycin 5000 IU, 5000 μg/ml (TRACE Biosciences Cat. No. 21-140-0100V). Cells were grown in […] flasks or in dishes (35 mm or 60 mm, Nunc) at 37° C. with 5% CO2. Cells were harvested with trypsin (TRACE Biosciences Cat. No. 21-163-0100V) and counted with a model ZF6 Coulter Counter. Cells were split in ratios of 1:2 or 1:4. Population doublings (PDs) were calculated from the ratio of the initial number of cells plated to the yield of cells after a period of time. This provides an accurate measure of cell growth, with the split ratios 1:2 and 1:4 corresponding to one and two passages respectively, which are broadly equivalent to population doublings. The media was changed every 5 days or when cells became confluent.
MRC-5 cells were used to observe the toxicity of a series of derivatives of carnosine on cell growth. Cell cultures were grown in DMEM media with 10% fetal calf serum and supplemented with the following carnosine analogues: carnosine ethyl ester, carnosine iso-propyl ester, carnosine n-butyl ester, carnosine n-hexyl ester, N-propyl carnosine, N-hexanoyl carnosine, N-trimethyl acetyl carnosine, N-acetyl carnosine methyl ester, N-acetyl carnosine ethyl ester and N-acetyl carnosine, […] Cells were also grown in DMEM supplemented with carnosine at 20 mM. […] Even at lower concentrations cell morphology was that of cells that have reached senescence i.e. broad flat cells with long process reaching out to other cells. Cell numbers were less than in the control flasks. […] As shown in FIG. 1 Acetyl-carnosine achieved a lifespan 5 PDs greater than the control and 6.7 PDs greater than carnosine over a 43 day period. […] In the early phase of the experiment growth rates were markedly greater than with the other compounds (FIG. 1).

senescent MRC-5 cells = details: 20 mM; PCT/AU91/00541; cited from earlier work
human blood peptidases = test: Stability in human blood serum / attack by human blood peptidases; type: in vitro ADME; details: human blood serum
[2] = Fate of compound after cellular uptake; type: cell-based; details: compared with acetyl-carnosine
Procedure: Experiments were conducted to determine the fate of acetyl-carnosine and carnosine after cellular uptake. […] A slower metabolism and incorporation into other proteins may be one reason for acetyl-carnosine having higher effective intracellular concentrations compared with carnosine despite its lower overall uptake.

MRC-5 cells [3] = test: Uptake of radio-labeled (3H) compounds by MRC-5 fibroblast cells; details: MRC-5 cells, after 48 hours
Procedure: For MRC-5 cells, (3H)—carnosine and acetyl carnosine were added to the medium of near confluent 60mm culture dishes. At different time points cells were washed three times with phosphate buffered saline, cells harvested and cell-associated radioactivity determined using Packard Starscint scintillation fluid.
The rate of uptake of carnosine and acetyl-carnosine by MRC-5 cells was studied using radio-labeled tritiated (3H) carnosine and acetyl-carnosine compounds. The uptake was measured in MRC-5 cells at passage 28 over a 48 hour period (FIG. 3A).

corneal epithelial cells = test: Uptake of radio-labeled (3H) compounds in fresh bovine eyes (corneal epithelium into aqueous humour); type: in vitro ADME; details: after 4 hours
Procedure: Radio-labeled (3H) carnosine and acetyl-carnosine were assayed for their rate of uptake using fresh bovine eyes and MRC-5 fibroblast cultures. For bovine eyes small cylinders (radius 3.5mm and height 8mm) placed on top of the eye formed a fix seal with the corneal epithelial cells. 200 microlitres of the radio-labeled compounds in 5mM unlabeled compound in phosphate buffered saline were instilled onto the eye and at different time points 600 μl of aqueous humour was aspirated using a 25 gauge needle for counting in the scintillation counter.
The uptake experiments were repeated using fresh bovine eyes.

MRC-5 cells [4] = details: carnosine supplemented media; cited from earlier work
[5] = test system: UV-Induced Immuno-suppression; design: key: 0 = zero effect; 10 = maximum effect; details: footnote (3) Australian provisional PQ 5150; cited from earlier work
MRC-5 cells [6] = test: Lifespan (population doublings) of MRC-5 cells in culture; type: cell-based, human; design: key to Lifespan extension: 0 = zero effect; 10 = maximum effect; details: for Lifespan of MRC-5 cells in culture, Population Doublings (PD): commenced at passage 55; for Lifespan extension: summary grade
Procedure: Cultures were split in a 1:4 ratio when flasks were approximately 70-80% confluent.
as §1
MRC-5 cells were used to observe the toxicity of a series of derivatives of carnosine on cell growth. Cell cultures were grown in DMEM media with 10% fetal calf serum and supplemented with the following carnosine analogues: carnosine ethyl ester, carnosine iso-propyl ester, carnosine n-butyl ester, carnosine n-hexyl ester, N-propyl carnosine, N-hexanoyl carnosine, N-trimethyl acetyl carnosine, N-acetyl carnosine methyl ester, N-acetyl carnosine ethyl ester and N-acetyl carnosine, at concentrations ranging between 1 mM to 20 mM. Cells were also grown in DMEM supplemented with carnosine at 20 mM. […] Even at lower concentrations cell morphology was that of cells that have reached senescence i.e. broad flat cells with long process reaching out to other cells. Cell numbers were less than in the control flasks. […] As shown in FIG. 1 Acetyl-carnosine achieved a lifespan 5 PDs greater than the control and 6.7 PDs greater than carnosine over a 43 day period. […] In the early phase of the experiment growth rates were markedly greater than with the other compounds (FIG. 1).
In fact all populations of MRC-5 cells grown in DMEM supplemented with acetyl-carnosine preserved a younger phenotype for much longer than cells grown in DMEM supplemented with carnosine or its analogues.
Under control conditions the range was 57.3-64.5 PDs (n=5). With the addition of carnosine (20mM) to the medium the range was 61.8-63.7 PDs (n=5) with an average increase of 1.4 PDs which represents a 3 fold increase in cell number. However, when acetyl-carnosine (5 mM) was added to the medium, the range was 62.3-70.3 PDs (n=5) with an average increase of 5 PDs compared with the controls. This represents a 32 fold increase in cell number.

MRC-5 cells [7] = test system: MRC-5 cells; design: Cell and eye uptake assay: key to the marks not given beside the values

Molecule | Effect on cell growth (score) (MRC-5 cells [1]; 2 mM) | Effect on cell growth (score) (MRC-5 cells [1]; 5 mM) | Effect on cell growth (score) (MRC-5 cells [1]; 10 mM) | Effect on cell growth (score) (MRC-5 cells [1]; 20 mM) | Cell Growth (MRC-5 cells [1]) | Effect on cell growth (score) (MRC-5 cells [1]; 0.5 mM) | Effect on cell growth (score) (MRC-5 cells [1]; 1 mM) | Lifespan of MRC-5 cells in culture, Population Doublings (PD) (MRC-5 cells [6]; 5 mM) | Lifespan extension (MRC-5 cells [6]) | other results
CCOC(=O)[C@H](Cc1cnc[nH]1)NC(=O)CCN [Carnosine ethyl ester, carnosine ethyl ester] | 5 | 5 | 4 | 3 |  |  |  |  |  | 
CC(C)OC(=O)[C@H](Cc1cnc[nH]1)NC(=O)CCN [Carnosine iso-propyl ester, carnosine iso-propyl ester] | 2 | 0 | 0 | 0 | TOXIC |  |  |  |  | 
CCCCOC(=O)[C@@H](Cc1cnc[nH]1)NC(=O)CCN [Carnosine n-butyl ester, carnosine n-butyl ester] | 5 | 5 | 2 | 0 | TOXIC |  |  |  |  | 
NCCC(=O)N[C@@H](Cc1cnc[nH]1)C(=O)O [Carnosine, β-alanyl-L-histidine, reference compound] |  | 5 | 6 | 7 |  |  |  |  |  | Effect on senescent MRC-5 cells transferred to supplemented medium (senescent MRC-5 cells): rejuvenated; Stability in human blood serum (human blood peptidases): rapidly destroyed; Incorporation of label into higher molecular weight proteins after uptake [2]: more rapidly incorporated into higher molecular weight proteins; Number of cells growing in supplemented media (MRC-5 cells [3]): 2.4×10^6; Uptake of (3H) compound into aqueous humour (corneal epithelial cells): 1.3%; Uptake relative to acetyl-carnosine (corneal epithelial cells): 2 times; Increase in cell mass reported by McFarland & Holliday (MRC-5 cells [4]): 12 fold; UV immuno suppression: post irradiation assay (3) [5]: 0; Range of lifespans of populations of MRC-5 cells (MRC-5 cells [6]; 20 mM in medium, n=5): 61.8-63.7 PDs; Lifespan of MRC-5 cells in culture, Population Doublings (PD) (MRC-5 cells [6]; 20 mM): 8.5 PD; Average increase in lifespan compared with controls (MRC-5 cells [6]; 20 mM, n=5): 1.4 PDs; Increase in cell number (MRC-5 cells [6]; 20 mM, worked out from the PD increase): 3 fold; Increase in cell mass (MRC-5 cells [6]; cells exposed to supplemented media): 3 fold; Cell and eye uptake assay (MRC-5 cells [7]): ++++; Uptake of (3H) compound by MRC-5 cells (MRC-5 cells [7]; human, 48 h): 0.32%; Uptake relative to acetyl-carnosine (MRC-5 cells [7]; human, 48 h): 2 times
CCOC(=O)C(Cc1cnc[nH]1)NC(=O)CCNC(C)=O (centres unmarked) [N-acetyl carnosine ethyl ester] | 4 | 4 | 2 | 0 |  | 6 | 5 |  |  | 
COC(=O)C(Cc1cnc[nH]1)NC(=O)CCNC(C)=O (centres unmarked) [N-acetyl carnosine methyl ester] | 5 | 5 | 5 | 0 |  | 6 | 6 |  |  | 
CCCCCC(=O)NCCC(=O)N[C@@H](Cc1c[nH]cn1)C(=O)O [N-hexanoyl carnosine] | 5 | 4 | 3 | 3 |  | 6 | 6 | 10.8 | 0 | 
CC(C)(C)C(=O)NCCC(=O)NC(Cc1cnc[nH]1)C(=O)O (centres unmarked) [N-trimethyl acetyl carnosine] | 5 | 4 | 3 | 3 |  | 6 | 6 | 9.4 | 0 | 
CCCCCCOC(=O)[C@H](Cc1c[nH]cn1)NC(=O)CCN [carnosine n-hexyl ester] | 3 | 1 | 0 | 0 | TOXIC |  |  |  |  | 
N-propyl carnosine | 5 | 4 | 3 | 2 |  | 6 | 6 | 11.0 | 0 | 
